{
  "source": "patent US8258098B2",
  "about": "“Antitumoral treatments” (Pharma Mar, S.A., priority 2006, dated 2012)",
  "key": {"K562 cell line": {"tested_on": "K562 cell line", "assay": "MTS assay with CalcuSyn combination index, leukemia", "assay_type": "cell-based", "conditions": "Homo sapiens, K562, read-out: IC50 (Molar)", "protocol": "(§1) These cell lines were cultured in RPMI1640 medium with 10% FBS and 2 mM L-Glutamine. Each cell line was plated in a 96 well plates at 20,000 cell per well.\n(§2) Each serial dilution was paired with 4 different concentrations of Idarubicin.\n(§3) The plates were incubated for 3 days at 37° C. and 5% CO2. The plates were read using the Promega MTS assay system with MTS being metabolized by living cells turning into formazan which is […] at 490 nm wavelength. This is an indirect measure of cell viability. These were analyzed using the Softmax Pro program which determines cell viability based percent of control wells. This IC50 data was then transferred into the CalcuSyn program for combination index analysis. CalcuSyn compares IC50 the values of the drugs alone with that of the drugs in combination using an algorithm to determine a combination index."}, "MOLT4 cell line": {"tested_on": "MOLT4 cell line", "assay": "MTS assay with CalcuSyn combination index, leukemia", "assay_type": "cell-based", "conditions": "Homo sapiens, MOLT-4, read-out: IC50 (Molar)", "protocol": "as §1, §2, §3"}},
  "data": [
    {"compound": "CC(=O)[C@]1(O)Cc2c(O)c3c(c(O)c2[C@@H](O[C@H]2C[C@H](N)[C@H](O)[C@H](C)O2)C1)C(=O)c1ccccc1C3=O", "note": "[Idarubicin]", "values": [
      {"measurement": "IC50", "setting": "K562 cell line", "result": 63.3, "unit": "nM"},
      {"measurement": "IC50", "setting": "MOLT4 cell line", "result": 0.05, "unit": "nM"}
    ]}
  ]
}
